Measurements published in ChEMBL document CHEMBL3861999, “Investigation of C-5 alkynyl (alkynyloxy or hydroxymethyl) and/or N-3 propynyl substituted pyrimidine nucleoside analogs as a new class of antimicrobial agents” (Bioorg Med Chem, 2016).
Converted amounts (≈) assume the structure as drawn.

Tests used:
Staphylococcus aureus [1] = experiment: Growth inhibition of Staphylococcus aureus ATCC 25923 assessed as fractional inhibitory concentration index at 100 ug/ml after 6 days in presence of 0.1 ug/ml of gentamicin by microplate alamar blue assay; format: functional
Enterococcus faecalis [2] = experiment: Growth inhibition of Enterococcus faecalis ATCC 29212 assessed as fractional inhibitory concentration index at 100 ug/ml after 6 days in presence of 4.5 ug/ml of gentamicin by microplate alamar blue assay; format: functional
Staphylococcus aureus [3] = experiment: Antibacterial activity against Staphylococcus aureus ATCC 25923 after 16 to 20 hrs by broth microdilution method; format: functional; settings: for MIC: read-out: MIC100
Mycobacterium avium [4] = experiment: Growth inhibition of Mycobacterium avium ATCC 25291 at 200 ug/ml after 6 days by microplate alamar blue assay; format: functional, Mycobacterium avium subsp. avium ATCC 25291; settings: ATCC 25291, 144 h, read-out: GI
Salmonella typhimurium = experiment: Antibacterial activity against clinical isolates of Salmonella typhimurium after 16 to 20 hrs by broth microdilution method; format: functional, Salmonella enterica subsp. enterica serovar Typhimurium; settings: for MIC: Salmonella enterica, read-out: MIC100
Escherichia coli [5] = experiment: Antibacterial activity against Escherichia coli ATCC 25922 after 16 to 20 hrs by broth microdilution method; format: functional
Enterococcus faecalis [6] = experiment: Antibacterial activity against Enterococcus faecalis ATCC 29212 after 16 to 20 hrs by broth microdilution method; format: functional; settings: for MIC: read-out: MIC100
[7] = tested on: Mycobacterium tuberculosis; experiment: Growth inhibition of Mycobacterium tuberculosis H37Ra at 200 ug/ml after 6 days by microplate alamar blue assay; format: functional; settings: 144 h, read-out: GI
Pseudomonas aeruginosa [8] = experiment: Antibacterial activity against Pseudomonas aeruginosa ATCC 13048 after 16 to 20 hrs by broth microdilution method; format: functional
[9] = Cytotoxicity against African green monkey Vero cells assessed as decrease in cell viability after 3 days by XTT assay; format: toxicity, cell-based; settings: chlorocebus sabaeus
Staphylococcus aureus [10] = experiment: Growth inhibition of Staphylococcus aureus ATCC 25923 at 100 ug/ml after 6 days in presence of 0.1 ug/ml of gentamicin by microplate alamar blue assay; format: functional
Enterococcus faecalis [11] = experiment: Growth inhibition of Enterococcus faecalis ATCC 29212 at 100 ug/ml after 6 days in presence of 4.5 ug/ml of gentamicin by microplate alamar blue assay; format: functional
[12] = tested on: Mycobacterium tuberculosis; experiment: Growth inhibition of Mycobacterium tuberculosis H37Ra at 0.5 ug/ml after 6 days by microplate alamar blue assay; format: functional; settings: 144 h, read-out: GI
Mycobacterium avium [13] = experiment: Growth inhibition of Mycobacterium avium ATCC 25291 at 2 ug/ml after 6 days by microplate alamar blue assay; format: functional, Mycobacterium avium subsp. avium ATCC 25291; settings: ATCC 25291, 144 h, read-out: GI
[14] = tested on: Mycobacterium tuberculosis; experiment: Growth inhibition of Mycobacterium tuberculosis H37Ra at 0.002 ug/ml after 6 days by microplate alamar blue assay; format: functional; settings: 144 h, read-out: GI
[15] = tested on: Mycobacterium tuberculosis; experiment: Inhibition of Mycobacterium tuberculosis H37Ra infected in human THP1 cells assessed as reduction in surviving bacteria at 1 ug/ml after 7 days by serial dilution method; format: functional; settings: THP-1, 168 h
[16] = tested on: Mycobacterium tuberculosis; experiment: Growth inhibition of Mycobacterium tuberculosis H37Ra at 1 ug/ml after 6 days by microplate alamar blue assay; format: functional; settings: 144 h, read-out: GI
[17] = tested on: Mycobacterium tuberculosis; experiment: Growth inhibition of Mycobacterium tuberculosis H37Ra at 0.2 ug/ml after 6 days by microplate alamar blue assay; format: functional; settings: 144 h, read-out: GI
[18] = tested on: Mycobacterium tuberculosis; experiment: Growth inhibition of Mycobacterium tuberculosis H37Ra at 0.012 ug/ml after 6 days by microplate alamar blue assay; format: functional; settings: 144 h, read-out: GI
[19] = tested on: Mycobacterium tuberculosis; experiment: Growth inhibition of Mycobacterium tuberculosis H37Ra at 0.006 ug/ml after 6 days by microplate alamar blue assay; format: functional; settings: 144 h, read-out: GI
[20] = tested on: Mycobacterium tuberculosis; experiment: Growth inhibition of Mycobacterium tuberculosis H37Ra at 100 ug/ml after 6 days in presence of 0.2 ug/ml of isoniazid by microplate alamar blue assay; format: functional
[21] = tested on: Mycobacterium tuberculosis; experiment: Growth inhibition of Mycobacterium tuberculosis H37Ra assessed as fractional inhibitory concentration index at 50 ug/ml after 6 days in presence of 0.012 ug/ml of isoniazid and 0.002 ug/ml of rifampicin by microplate alamar blue assay; format: functional
[22] = tested on: Mycobacterium tuberculosis; experiment: Growth inhibition of Mycobacterium tuberculosis H37Ra at 100 ug/ml after 6 days by microplate alamar blue assay; format: functional; settings: 144 h, read-out: GI
[23] = tested on: Mycobacterium tuberculosis; experiment: Growth inhibition of Mycobacterium tuberculosis H37Ra at 50 ug/ml after 6 days in presence of 0.012 ug/ml of isoniazid and 0.002 ug/ml of rifampicin by microplate alamar blue assay; format: functional
[24] = tested on: Mycobacterium tuberculosis; experiment: Growth inhibition of Mycobacterium tuberculosis H37Ra assessed as fractional inhibitory concentration index at 75 ug/ml after 6 days in presence of 0.2 ug/ml of isoniazid by microplate alamar blue assay; format: functional
[25] = tested on: Mycobacterium tuberculosis; experiment: Growth inhibition of Mycobacterium tuberculosis H37Ra at 75 ug/ml after 6 days by microplate alamar blue assay; format: functional; settings: 144 h, read-out: GI
[26] = tested on: Mycobacterium tuberculosis; experiment: Growth inhibition of Mycobacterium tuberculosis H37Ra assessed as fractional inhibitory concentration index at 100 ug/ml after 6 days in presence of 0.2 ug/ml of isoniazid by microplate alamar blue assay; format: functional
Escherichia coli [27] = experiment: Growth inhibition of Escherichia coli ATCC 25922 at 10 to 200 ug/ml after 16 to 20 hrs by broth microdilution method; format: functional
Pseudomonas aeruginosa [28] = experiment: Growth inhibition of Pseudomonas aeruginosa ATCC 13048 at 10 to 200 ug/ml after 16 to 20 hrs by broth microdilution method; format: functional
[29] = tested on: Mycobacterium tuberculosis; experiment: Inhibition of Mycobacterium tuberculosis H37Ra infected in human THP1 cells assessed as reduction in surviving bacteria at 200 ug/ml after 7 days by serial dilution method; format: functional; settings: THP-1, 168 h
[30] = tested on: Mycobacterium tuberculosis; experiment: Growth inhibition of Mycobacterium tuberculosis H37Ra at 75 ug/ml after 6 days in presence of 0.2 ug/ml of isoniazid by microplate alamar blue assay; format: functional
[31] = tested on: Mycobacterium tuberculosis; experiment: Growth inhibition of Mycobacterium tuberculosis H37Ra at 50 ug/ml after 6 days in presence of 0.006 ug/ml of isoniazid and 0.002 ug/ml of rifampicin by microplate alamar blue assay; format: functional
[32] = tested on: Mycobacterium tuberculosis; experiment: Growth inhibition of Mycobacterium tuberculosis H37Ra at 50 ug/ml after 6 days by microplate alamar blue assay; format: functional; settings: 144 h, read-out: GI
[33] = tested on: Mycobacterium tuberculosis; experiment: Growth inhibition of Mycobacterium tuberculosis H37Ra assessed as fractional inhibitory concentration index at 50 ug/ml after 6 days in presence of 0.006 ug/ml of isoniazid and 0.002 ug/ml of rifampicin by microplate alamar blue assay; format: functional

## C#CCOc1cn([C@@H]2O[C@H](CO)[C@@H](O)[C@H]2F)c(=O)n(CC#C)c1=O
Staphylococcus aureus [1]
  fractional inhibitory concentration index (FICI): 0.7
Enterococcus faecalis [2]
  fractional inhibitory concentration index (FICI): 0.86
Staphylococcus aureus [3]
  MIC: 200 µg/mL (≈ 591 µM)
Mycobacterium avium [4]
  inhibition of growth at 200 µg/mL: 0%
Salmonella typhimurium
  MIC: > 200 µg/mL
Escherichia coli [5]; read-out: MIC100
  MIC: > 200 µg/mL
Enterococcus faecalis [6]
  MIC: 200 µg/mL (≈ 591 µM)
[7]
  inhibition of growth at 200 µg/mL: 35%
Pseudomonas aeruginosa [8]; read-out: MIC100
  MIC: > 200 µg/mL
[9]
  CC50 at 72 h: > 300 µg/mL
Staphylococcus aureus [10]
  growth inhibition (GI): 100%
Enterococcus faecalis [11]
  growth inhibition (GI): 100%

## CO[C@H]1/C=C/O[C@@]2(C)Oc3c(C)c(O)c4c(O)c(c(/C=N/N5CCN(C)CC5)c(O)c4c3C2=O)NC(=O)/C(C)=C\C=C\[C@H](C)[C@H](O)[C@@H](C)[C@@H](O)[C@@H](C)[C@H](OC(C)=O)[C@@H]1C [RIFAMPIN]
[12]
  inhibition of growth at 0.5 µg/mL: 100%
Mycobacterium avium [13]
  inhibition of growth at 2 µg/mL: 90%
[14]
  inhibition of growth at 0.002 µg/mL: 46.2%

## GENTAMICIN
Staphylococcus aureus [3]
  MIC100: 0.5 µg/mL
Salmonella typhimurium; Salmonella enterica subsp. enterica serovar Typhimurium
  MIC100: 1 µg/mL
Escherichia coli [5]
  MIC100: 1 µg/mL
Enterococcus faecalis [6]
  MIC100: 12.5 µg/mL
Pseudomonas aeruginosa [8]
  MIC100: 1 µg/mL

## NNC(=O)c1ccncc1 [ISONIAZID]
[15]
  inhibition at 1 µg/mL: > 90%
[16]
  inhibition of growth at 1 µg/mL: 100%
[17]
  inhibition of growth at 0.2 µg/mL: 48.8%
[18]
  inhibition of growth at 0.012 µg/mL: 7.22%
[19]
  inhibition of growth at 0.006 µg/mL: 1.47%

## C#CCOc1cn([C@@H]2O[C@H](CO)[C@@H](O)[C@H]2F)c(=O)[nH]c1=O
Staphylococcus aureus [3]
  MIC: > 200 µg/mL
[20]
  growth inhibition (GI): 99.15%
Mycobacterium avium [4]
  inhibition of growth at 200 µg/mL: 0%
[21]
  fractional inhibitory concentration index (FICI): 0.09
[22]
  inhibition of growth at 100 µg/mL: 3.15%
[23]
  growth inhibition (GI): 97.81%
[24]
  fractional inhibitory concentration index (FICI): 0.56
Salmonella typhimurium
  MIC: > 200 µg/mL
[25]
  inhibition of growth at 75 µg/mL: 1.15%
Enterococcus faecalis [6]
  MIC: > 200 µg/mL
[26]
  fractional inhibitory concentration index (FICI): 0.03
Escherichia coli [27]
  growth inhibition (GI): 0%
Pseudomonas aeruginosa [28]
  growth inhibition (GI): 0%
[29]
  inhibition at 200 µg/mL: 50%
[30]
  growth inhibition (GI): 81.16%
[7]
  inhibition of growth at 200 µg/mL: 97%
[31]
  growth inhibition (GI): 93.36%
[9]
  CC50 at 72 h: > 300 µg/mL
[32]
  inhibition of growth at 50 µg/mL: 2.51%
[33]
  fractional inhibitory concentration index (FICI): 0.21

## CC[C@H]1OC(=O)[C@H](C)[C@@H](O[C@H]2C[C@@](C)(OC)[C@@H](O)[C@H](C)O2)[C@H](C)[C@@H](O[C@@H]2O[C@H](C)C[C@H](N(C)C)[C@H]2O)[C@](C)(OC)C[C@@H](C)C(=O)[C@H](C)[C@@H](O)[C@]1(C)O [CLARITHROMYCIN]
Mycobacterium avium [13]
  inhibition of growth at 2 µg/mL: 100%

## CN[C@H](CC(C)C)C(=O)N[C@H]1C(=O)N[C@@H](CC(N)=O)C(=O)N[C@H]2C(=O)N[C@H]3C(=O)N[C@H](C(=O)N[C@H](C(=O)O)c4cc(O)cc(O)c4-c4cc3ccc4O)[C@H](O)c3ccc(c(Cl)c3)Oc3cc2cc(c3O[C@@H]2O[C@H](CO)[C@@H](O)[C@H](O)[C@H]2O[C@H]2C[C@](C)(N)[C@H](O)[C@H](C)O2)Oc2ccc(cc2Cl)[C@H]1O [VANCOMYCIN]
Staphylococcus aureus [3]
  MIC: 1.5 µg/mL (≈ 1.04 µM)
Enterococcus faecalis [6]
  MIC: 4.5 µg/mL (≈ 3.11 µM)
